In US8541418B2, “Inhibitors of polo-like kinase” (Elan Pharmaceutical, Inc., priority 2009, dated 2013):
Read-outs that look alike come from different tables or passages of the source.

Legend:
Format in all cases: biochemical
PLK3 = PLK3 (Homo sapiens, UniProt Q9H4B4); experiment: PLK TR-FRET peptide assay, PLK3
PLK1 = PLK1 (Homo sapiens, UniProt P53350); experiment: PLK TR-FRET peptide assay, PLK1
PLK2 = PLK2 (Homo sapiens, UniProt Q9NYY3); experiment: PLK TR-FRET peptide assay, PLK2; conditions: PLK TR-FRET peptide assay, read-out: Plk2 IC50
[1] = GST-PLK3, 15 min reaction, read-out: Plk3 IC50

PLK1, sequence (P53350 whole entry): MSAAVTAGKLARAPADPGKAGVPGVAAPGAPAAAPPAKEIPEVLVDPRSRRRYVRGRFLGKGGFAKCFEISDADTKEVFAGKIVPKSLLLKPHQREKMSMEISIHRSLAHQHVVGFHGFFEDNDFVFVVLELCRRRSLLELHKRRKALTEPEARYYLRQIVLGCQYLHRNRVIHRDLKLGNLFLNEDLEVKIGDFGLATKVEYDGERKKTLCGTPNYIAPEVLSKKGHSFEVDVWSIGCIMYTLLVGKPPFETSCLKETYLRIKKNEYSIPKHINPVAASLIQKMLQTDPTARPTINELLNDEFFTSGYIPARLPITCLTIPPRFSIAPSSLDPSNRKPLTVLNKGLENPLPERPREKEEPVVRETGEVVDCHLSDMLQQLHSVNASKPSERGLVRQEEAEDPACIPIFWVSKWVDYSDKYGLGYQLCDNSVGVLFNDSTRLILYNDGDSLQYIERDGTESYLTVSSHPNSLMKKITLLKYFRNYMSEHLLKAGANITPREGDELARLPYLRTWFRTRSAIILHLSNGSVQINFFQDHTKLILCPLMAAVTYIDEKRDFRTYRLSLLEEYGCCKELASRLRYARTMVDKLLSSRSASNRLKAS
PLK2, sequence (Q9NYY3 whole entry): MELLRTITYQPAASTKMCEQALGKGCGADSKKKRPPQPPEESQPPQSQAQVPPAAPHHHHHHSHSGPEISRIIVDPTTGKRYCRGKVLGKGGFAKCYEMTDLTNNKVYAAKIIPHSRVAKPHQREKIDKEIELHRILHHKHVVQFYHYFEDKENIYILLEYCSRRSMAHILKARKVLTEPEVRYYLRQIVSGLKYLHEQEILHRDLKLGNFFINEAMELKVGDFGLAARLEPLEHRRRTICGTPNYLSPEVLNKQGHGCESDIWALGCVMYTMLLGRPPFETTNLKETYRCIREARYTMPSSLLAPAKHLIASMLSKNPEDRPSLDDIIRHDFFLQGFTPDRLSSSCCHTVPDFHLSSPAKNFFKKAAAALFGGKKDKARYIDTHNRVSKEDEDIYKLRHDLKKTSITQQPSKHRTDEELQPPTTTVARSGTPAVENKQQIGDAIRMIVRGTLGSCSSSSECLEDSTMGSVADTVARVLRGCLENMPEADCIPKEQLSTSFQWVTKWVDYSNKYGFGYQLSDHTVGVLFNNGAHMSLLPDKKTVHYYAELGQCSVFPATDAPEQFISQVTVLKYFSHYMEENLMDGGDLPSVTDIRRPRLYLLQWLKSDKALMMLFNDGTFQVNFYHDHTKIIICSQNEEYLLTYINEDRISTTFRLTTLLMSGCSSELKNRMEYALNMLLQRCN
PLK3, sequence (Q9H4B4 whole entry): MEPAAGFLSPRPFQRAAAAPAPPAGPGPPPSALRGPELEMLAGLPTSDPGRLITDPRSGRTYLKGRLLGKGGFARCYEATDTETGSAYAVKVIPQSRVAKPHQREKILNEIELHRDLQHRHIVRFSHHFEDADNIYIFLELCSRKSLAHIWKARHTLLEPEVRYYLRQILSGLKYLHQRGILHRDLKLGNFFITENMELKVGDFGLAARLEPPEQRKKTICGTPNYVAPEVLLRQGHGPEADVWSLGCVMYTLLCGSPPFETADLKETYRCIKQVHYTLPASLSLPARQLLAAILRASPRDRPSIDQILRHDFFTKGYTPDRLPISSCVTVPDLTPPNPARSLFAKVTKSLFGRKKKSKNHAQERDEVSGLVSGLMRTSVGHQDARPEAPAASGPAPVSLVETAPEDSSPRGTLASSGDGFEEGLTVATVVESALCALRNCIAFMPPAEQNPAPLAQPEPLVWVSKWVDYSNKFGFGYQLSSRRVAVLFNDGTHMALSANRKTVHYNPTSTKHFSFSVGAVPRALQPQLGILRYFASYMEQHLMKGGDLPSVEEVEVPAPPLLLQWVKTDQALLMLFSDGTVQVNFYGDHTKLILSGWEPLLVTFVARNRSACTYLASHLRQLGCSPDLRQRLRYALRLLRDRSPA

IC50 (PLK3; GST-PLK3, read-out: Plk3 IC50) [µM]	IC50 (PLK1; GST-PLK1) [µM]	IC50 (PLK2; GST-PLK2) [µM]	IC50 (PLK3; [1]) [µM]	IC50 (PLK1; GST-PLK1, 60 min reaction) [µM]	IC50 (PLK2; GST-PLK2, 60 min reaction) [µM]	SMILES
			1 to 10	1 to 10	< 1	CCC1C(=O)N(C)c2cnc(-n3ccnc3-c3ccc(F)cc3)nc2N1c1cccc(-c2cncnc2)c1 (stereo not drawn) [Example 346, 7-ethyl-2-(2-(4-fluorophenyl)-1H-imidazol-1-yl)-5-methyl-8-(3-(pyrimidin-5-yl)phenyl)-7,8-dihydropteridin-6(5H)-one]
			1 to 10	1 to 10	< 1	CC[C@@H]1C(=O)N(C)c2cnc(-n3ccnc3-c3ccc(F)cc3F)nc2N1C1CCOC1 (stereo partly drawn) [Example 268, (7R)-2-(2-(2,4-difluorophenyl)-1H-imidazol-1-yl)-7-ethyl-5-methyl-8-(tetrahydrofuran-3-yl)-7,8-dihydropteridin-6(5H)-one]
			1 to 10	< 1	< 1	CC[C@@H]1C(=O)N(C)c2cnc(-n3ccnc3-c3ccccc3)nc2N1C1CCC1 [Example 47, (R)-8-cyclobutyl-7-ethyl-5-methyl-2-(2-phenyl-1H-imidazol-1-yl)-7,8-dihydropteridin-6(5H)-one]
			1 to 10	< 1	< 1	CC[C@@H]1C(=O)N(C)c2cnc(-n3ccnc3-c3cccc(F)c3F)nc2N1CCC(F)(F)F [Example 254, (R)-2-(2-(2,3-difluorophenyl)-1H-imidazol-1-yl)-7-ethyl-5-methyl-8-(3,3,3-trifluoropropyl)-7,8-dihydropteridin-6(5H)-one]
			1 to 10	1 to 10	< 1	CC[C@@H]1C(=O)N(C)c2cnc(-n3ccnc3-c3ccc(F)cc3F)nc2N1CCC(F)(F)F [Example 277, (R)-2-(2-(2,4-difluorophenyl)-1H-imidazol-1-yl)-7-ethyl-5-methyl-8-(3,3,3-trifluoropropyl)-7,8-dihydropteridin-6(5H)-one]
			10 to 50	1 to 10	< 1	CC[C@@H]1C(=O)N(C)c2cnc(-n3ccnc3-c3ccccc3)nc2N1C1COC1 [Example 335, (R)-7-ethyl-5-methyl-8-(oxetan-3-yl)-2-(2-phenyl-1H-imidazol-1-yl)-7,8-dihydropteridin-6(5H)-one]
1 to 10	1 to 10	< 1				CCC1C(=O)N(C)c2cnc(-n3ccnc3-c3ccc(F)cc3)nc2N1c1ccc(Cl)cc1 (stereo not drawn) [Example 388, 8-(4-chlorophenyl)-7-ethyl-2-(2-(4-fluorophenyl)-1H-imidazol-1-yl)-5-methyl-7,8-dihydropteridin-6(5H)-one]
			1 to 10	< 1	< 1	CCC1C(=O)N(C)c2cnc(-c3cn[nH]c3-c3nccs3)nc2N1c1ccc(F)cc1 (stereo not drawn) [Example 370]
			10 to 50	1 to 10	< 1	CC[C@@H]1C(=O)N(C)c2cnc(-n3ccnc3-c3ccc(F)cc3F)nc2N1C1CC(F)(F)C1 [Example 260, (R)-8-(3,3-difluorocyclobutyl)-2-(2-(2,4-difluorophenyl)-1H-imidazol-1-yl)-7-ethyl-5-methyl-7,8-dihydropteridin-6(5H)-one]
			> 50	> 50	1 to 10	CC(C)N1c2nc(-n3ccnc3-c3ccc(F)cc3)ncc2N(C)C(=O)C1(C)C [Example 298, 2-(2-(4-fluorophenyl)-1H-imidazol-1-yl)-8-isopropyl-5,7,7-trimethyl-7,8-dihydropteridin-6(5H)-one]

Second part, the compound before the results:

SMILES	IC50 (PLK3; GST-PLK3, read-out: Plk3 IC50) [µM]	IC50 (PLK1; GST-PLK1) [µM]	IC50 (PLK2; GST-PLK2) [µM]	IC50 (PLK3; [1]) [µM]	IC50 (PLK1; GST-PLK1, 60 min reaction) [µM]	IC50 (PLK2; GST-PLK2, 60 min reaction) [µM]
CC[C@H]1C(=O)N(C)c2cnc(-c3cn[nH]c3-c3nccs3)nc2N1c1ccc(F)c(F)c1 [Example 393, (S)-8-(3,4-difluorophenyl)-7-ethyl-5-methyl-2-(5-(thiazol-2-yl)-1H-pyrazol-4-yl)-7,8-dihydropteridin-6(5H)-one]	> 50	10 to 50	1 to 10			
CC[C@@H]1C(=O)N(C)c2cnc(-n3ccnc3-c3ccccc3F)nc2N1C1CCC1 [Example 49, (R)-8-cyclobutyl-7-ethyl-2-(2-(2-fluorophenyl)-1H-imidazol-1-yl)-5-methyl-7,8-dihydropteridin-6(5H)-one]				1 to 10	< 1	< 1
CC[C@@H]1C(=O)N(C)c2cnc(-n3ccnc3N3CCN(C)CC3)nc2N1C1CCCC1 [Example 88, (R)-8-cyclopentyl-7-ethyl-5-methyl-2-(2-(4-methylpiperazin-1-yl)-1H-imidazol-1-yl)-7,8-dihydropteridin-6(5H)-one]				> 50	10 to 50	10 to 50
CC[C@@]12CCCN1c1nc(-n3ccnc3)ncc1N(C)C2=O [Example 285, (S)-6a-ethyl-2-(1H-imidazol-1-yl)-5-methyl-6a,7,8,9-tetrahydropyrrolo[2,1-h]pteridin-6(5H)-one]				> 50	> 50	10 to 50
[2H]C([2H])([2H])N1C(=O)[C@H](C([2H])([2H])C([2H])([2H])[2H])N(C([2H])(C([2H])([2H])[2H])C([2H])([2H])[2H])c2nc(-n3ccnc3-c3cccc(F)c3)ncc21 [Example 201, (S)-7-perdeuteroethyl-2-(2-(3-fluorophenyl)-1H-imidazol-1-yl)-8-perdeuteroisopropyl-5-trideuteromethyl-7,8-dihydropteridin-6(5H)-one]				> 50	10 to 50	1 to 10
CC[C@@H]1C(=O)N(C)c2cnc(-c3cccc(S(C)(=O)=O)c3)nc2N1C1CCCC1 [Example 71, (R)-8-cyclopentyl-7-ethyl-5-methyl-2-(3-(methylsulfonyl)phenyl)-7,8-dihydropteridin-6(5H)-one]				10 to 50	1 to 10	1 to 10
CC[C@@H]1C(=O)N(C)c2cnc(-n3ccnc3-c3cc(F)cc(C(F)(F)F)c3)nc2N1C1CCC1 [Example 174, (R)-8-cyclobutyl-7-ethyl-2-(2-(3-fluoro-5-(trifluoromethyl)phenyl)-1H-imidazol-1-yl)-5-methyl-7,8-dihydropteridin-6(5H)-one]				10 to 50	1 to 10	< 1
CC[C@@H]1C(=O)N(C)c2cnc(-c3ccncc3CNC(C)=O)nc2N1C(C)C [Example 129, (R)—N-((4-(7-ethyl-8-isopropyl-5-methyl-6-oxo-5,6,7,8-tetrahydropteridin-2-yl)pyridin-3-yl)methyl)acetamide]				> 50	> 50	10 to 50
CC[C@@H]1C(=O)N(C)c2cnc(-n3ccnc3-c3nccs3)nc2N1C1CCC1 [Example 156, (R)-8-cyclobutyl-7-ethyl-5-methyl-2-(2-(thiazol-2-yl)-1H-imidazol-1-yl)-7,8-dihydropteridin-6(5H)-one]				1 to 10	1 to 10	< 1
[2H]C([2H])([2H])N1C(=O)C(C([2H])([2H])C([2H])([2H])[2H])N(C([2H])(C([2H])([2H])[2H])C([2H])([2H])[2H])c2nc(-n3ccnc3-c3cccc(F)c3)ncc21 (racemic) [Example 180, 7-perdeuteroethyl-2-(2-(3-fluorophenyl)-1H-imidazol-1-yl)-8-perdeuteroisopropyl-5-trideuteromethyl-7,8-dihydropteridin-6(5H)-one]				1 to 10	< 1	< 1
CC[C@@H]1C(=O)N(C)c2cnc(-c3ccncc3NC(=O)OC(C)(C)C)nc2N1C1CCCC1 [Example 92, (R)-tert-butyl 4-(8-cyclopentyl-7-ethyl-5-methyl-6-oxo-5,6,7,8-tetrahydropteridin-2-yl)pyridin-3-ylcarbamate]				> 50	10 to 50	1 to 10
CC[C@@H]1C(=O)N(C)c2cnc(-c3cn[nH]c3-c3nccs3)nc2N1C1CC(F)(F)C1 [Example 353, (R)-8-(3,3-difluorocyclobutyl)-7-ethyl-5-methyl-2-(5-(thiazol-2-yl)-1H-pyrazol-4-yl)-7,8-dihydropteridin-6(5H)-one]				1 to 10	1 to 10	< 1
CC[C@@H]1C(=O)N(C)c2cnc(-c3cncs3)nc2N1C1CCCC1 [Example 355, (R)-8-cyclopentyl-7-ethyl-5-methyl-2-(thiazol-5-yl)-7,8-dihydropteridin-6(5H)-one]				1 to 10	< 1	< 1
CCC12CCCCN1c1nc(-n3ccnc3-c3ccc(F)cc3F)ncc1N(C)C2=O (racemic) [Example 257, (+/−) 2-(2-(2,4-difluorophenyl)-1H-imidazol-1-yl)-6a-ethyl-5-methyl-7,8,9,10-tetrahydro-5H-pyrido[2,1-h]pteridin-6(6aH)-one]				10 to 50	10 to 50	< 1
[2H]C([2H])([2H])N1C(=O)C(C([2H])([2H])C([2H])([2H])[2H])N(C([2H])(C([2H])([2H])[2H])C([2H])([2H])[2H])c2nc(-c3c[nH]nc3-c3ccccc3)ncc21 (stereo not drawn) [Example 165, 7-perdeuteroethyl-8-perdeuteroisopropyl-5-trideuteromethyl-2-(3-phenyl-1H-pyrazol-4-yl)-7,8-dihydropteridin-6(5H)-one]				1 to 10	< 1	< 1
CC[C@@]12CCCN1c1nc(-n3nccc3-c3ccccc3)ncc1N(C)C2=O [Example 193, (S)-6a-ethyl-5-methyl-2-(5-phenyl-1H-pyrazol-1-yl)-6a,7,8,9-tetrahydropyrrolo[2,1-h]pteridin-6(5H)-one]				1 to 10	1 to 10	1 to 10
CC[C@@H]1C(=O)N(C)c2cnc(-c3cn[nH]c3-c3ccccn3)nc2N1C(C)C [Example 313, (R)-7-ethyl-8-isopropyl-5-methyl-2-(5-(pyridin-2-yl)-1H-pyrazol-4-yl)-7,8-dihydropteridin-6(5H)-one]				1 to 10	1 to 10	< 1
CC[C@@H]1C(=O)N(C)c2cnc(N3CCN(c4cnccn4)CC3)nc2N1C1CCCC1 [Example 223, (R)-8-cyclopentyl-7-ethyl-5-methyl-2-(4-(pyrazin-2-yl)piperazin-1-yl)-7,8-dihydropteridin-6(5H)-one]				> 50	1 to 10	1 to 10
